Where two headings read alike, the source gives them in different places.
Experiments:
[1] = tested on: A549 and U-87 MG co-implantation mice; experiment: Biodistribution in A549 and U-87 MG co-implantation mice; assay type: in vivo, BALB/c nu-nu mice
Method: (§1) Animal experiments were performed in compliance with institutional animal care regulations, with the study protocol approved by the Experimental Animal Committee of Osaka Medical and Pharmaceutical University (Approval Numbers: 21–76, 22–76, and 23–76). Four-week-old male BALB/c nu-nu mice (Japan SLC, Shizuoka, Japan) were housed under a 12 h light/12 h dark cycle with free access to food and water. Tumor-bearing mice were established by suspending U-87 MG cells (2 × 10^6 cells/mouse) in PBS(–) and subcutaneously injecting 100 μL of the suspension into the right hind leg. For co-implantation models, A549 cells (2 × 10^6 cells/mouse) were suspended in PBS(–) and inoculated (100 μL) into the left hind leg of the same mice already inoculated with U-87 MG cells. Mice with tumor size approximately 10 mm in diameter, 4–5 weeks after inoculation, were used for biodistribution studies. Animals in which either tumor was not viable were excluded from the experiment.
(§2) U-87 MG-bearing mice (n = 42, 8–9 weeks old; 22–27 g) were randomly assigned into groups and administered [^125I]bcRGDpal or [^125I]bcRGDiba via intravenous injection (37 kBq in 100 μL of PBS containing 0.1% Tween 80 (PBS-T80)). At 5 min, 30 min, 1 h, 2 h, 6 h, 12 h, or 24 h post-injection, the mice were euthanized (n = 3 per time point). The heart, kidneys, liver, brain, pancreas, spleen, lung, small intestine, large intestine, muscle, skin, stomach, bone, and tumors were excised. Each organ’s weight and radioactivity were measured by a NaI well-type scintillation counter, and the % ID/g was calculated. To investigate the correlation between integrin expression and radioactivity accumulation, biodistribution at 2 h after administration of [^125I]bcRGDpal or [^125I]bcRGDiba was assessed in A549 and U-87 MG co-implantation mice (n = 5) using the same procedure. Additionally, co-implantation mice were injected with [^125I]bcRGDdimer (37 kBq/100 μL PBS-T80) and euthanized at 30 min, 2 h, and 4 h post-injection (n = 4 per time point), and % ID/g values were calculated as described above. The minimum sample size needed for the biodistribution study in U-87 MG-bearing mice was calculated using G Power software version 3.1.9.7. The calculation was based on a two-tailed test, with an effect size of 3.9, a significance level (α) of 0.05, and a statistical power (1 − β) of 0.8. […] The minimum required sample size for the biodistribution study in A549 and U-87 MG co-implantation mice was also calculated to be four animals per group (effect size = 2.5, α = 0.05, 1 − β = 0.8). To guarantee objective results, the experiment was carried out in a blinded manner. Specifically, drug administration and radioactivity measurements were conducted by different investigators to eliminate potential bias.

[2] = as above; assay type: in vivo, BALB/c nu-nu mice; details: male, BALB/c nu-nu, mouse, iv, 37 kBq, total radioactivity, U-87 MG and A549 co-implanted mice, mean ± SD, n = 4
Method: as §1, §2

[3] = 30 min after i.v. administration, U-87 MG and A549 co-implanted mice, mean ± SD, n = 4
[4] = 2 h after i.v. administration, U-87 MG and A549 co-implanted mice, mean ± SD, n = 4
[5] = 4 h after i.v. administration, U-87 MG and A549 co-implanted mice, mean ± SD, n = 4

Radioactivity in thyroid [1, 3]: 0.0 ± 0.0 % injected dose
U87/Muscle radioactivity ratio [1, 3]: 7.1 ± 1.8
Radioactivity in thyroid [1, 4]: 0.0 ± 0.0 % injected dose
U87/Blood radioactivity ratio [1, 4]: 22
U87/Muscle radioactivity ratio [1, 4]: 13.9 ± 6.8
Lung-to-blood radioactivity ratio ([1]; 2 h post-administration): 3.7
Accumulation ratio U87/A549 ([1]; 2 h post-administration, co-implanted mice): 5.4
Radioactivity in thyroid [1, 5]: 0.0 ± 0.0 % injected dose
U87/Muscle radioactivity ratio [1, 5]: 10.3 ± 2.5
tissue uptake at 0.5 h ([2]; A549 tumor, 30 min after i.v. administration, read-out: Radioactivity in A549 tumor): 1.7 ± 0.6 %ID/g
tissue uptake at 2 h ([2]; A549 tumor, 2 h after i.v. administration, read-out: Radioactivity in A549 tumor): 0.8 ± 0.2 %ID/g
tissue uptake at 4 h ([2]; A549 tumor, 4 h after i.v. administration, read-out: Radioactivity in A549 tumor): 0.4 ± 0.1 %ID/g
tissue uptake at 0.5 h ([2]; U-87 MG tumor, 30 min after i.v. administration, read-out: Radioactivity in U-87 MG tumor): 7.5 ± 0.8 %ID/g
tissue uptake at 2 h ([2]; U-87 MG tumor, 2 h after i.v. administration, read-out: Radioactivity in U-87 MG tumor): 4.2 ± 1.1 %ID/g
tissue uptake at 4 h ([2]; U-87 MG tumor, 4 h after i.v. administration, read-out: Radioactivity in U-87 MG tumor): 2.9 ± 0.4 %ID/g
tissue uptake at 2 h ([2]; blood, 2 h after i.v. administration, read-out: Radioactivity in blood): 0.3 %ID/g
tissue uptake at 0.5 h ([2]; bone, 30 min after i.v. administration, read-out: Radioactivity in bone): 1.5 ± 0.3 %ID/g
tissue uptake at 2 h ([2]; bone, 2 h after i.v. administration, read-out: Radioactivity in bone): 0.9 ± 0.3 %ID/g
tissue uptake at 4 h ([2]; bone, 4 h after i.v. administration, read-out: Radioactivity in bone): 0.4 %ID/g
tissue uptake at 0.5 h ([2]; brain, 30 min after i.v. administration, read-out: Radioactivity in brain): 0.1 %ID/g
tissue uptake at 0.5 h ([2]; heart, 30 min after i.v. administration, read-out: Radioactivity in heart): 0.6 ± 0.1 %ID/g
tissue uptake at 2 h ([2]; heart, 2 h after i.v. administration, read-out: Radioactivity in heart): 0.2 %ID/g
tissue uptake at 4 h ([2]; heart, 4 h after i.v. administration, read-out: Radioactivity in heart): 0.1 %ID/g
tissue uptake at 0.5 h ([2]; kidneys, 30 min after i.v. administration, read-out: Radioactivity in kidneys): 10.9 ± 2.6 %ID/g
tissue uptake at 2 h ([2]; kidneys, 2 h after i.v. administration, read-out: Radioactivity in kidneys): 2 ± 0.2 %ID/g
tissue uptake at 4 h ([2]; kidneys, 4 h after i.v. administration, read-out: Radioactivity in kidneys): 0.9 ± 0.2 %ID/g
tissue uptake at 0.5 h ([2]; large intestine, 30 min after i.v. administration, read-out: Radioactivity in large intestine): 0.4 ± 0.2 %ID/g
tissue uptake at 2 h ([2]; large intestine, 2 h after i.v. administration, read-out: Radioactivity in large intestine): 5.5 ± 1 %ID/g
tissue uptake at 4 h ([2]; large intestine, 4 h after i.v. administration, read-out: Radioactivity in large intestine): 5.5 ± 1.4 %ID/g
tissue uptake at 0.5 h ([2]; liver, 30 min after i.v. administration, read-out: Radioactivity in liver): 0.9 ± 0.1 %ID/g
tissue uptake at 2 h ([2]; liver, 2 h after i.v. administration, read-out: Radioactivity in liver): 0.5 ± 0.1 %ID/g
tissue uptake at 4 h ([2]; liver, 4 h after i.v. administration, read-out: Radioactivity in liver): 0.3 ± 0.1 %ID/g
tissue uptake at 0.5 h ([2]; lung, 30 min after i.v. administration, read-out: Radioactivity in lung): 2.9 ± 0.5 %ID/g
tissue uptake at 2 h ([2]; lung, 2 h after i.v. administration, read-out: Radioactivity in lung): 1.2 ± 0.3 %ID/g
tissue uptake at 4 h ([2]; lung, 4 h after i.v. administration, read-out: Radioactivity in lung): 0.4 ± 0.1 %ID/g
tissue uptake at 0.5 h ([2]; muscle, 30 min after i.v. administration, read-out: Radioactivity in muscle): 0.7 ± 0.1 %ID/g
tissue uptake at 2 h ([2]; muscle, 2 h after i.v. administration, read-out: Radioactivity in muscle): 0.2 %ID/g
tissue uptake at 4 h ([2]; muscle, 4 h after i.v. administration, read-out: Radioactivity in muscle): 0.1 %ID/g
tissue uptake at 0.5 h ([2]; pancreas, 30 min after i.v. administration, read-out: Radioactivity in pancreas): 0.5 ± 0.1 %ID/g
tissue uptake at 2 h ([2]; pancreas, 2 h after i.v. administration, read-out: Radioactivity in pancreas): 0.2 ± 0.1 %ID/g
tissue uptake at 4 h ([2]; pancreas, 4 h after i.v. administration, read-out: Radioactivity in pancreas): 0.1 %ID/g
tissue uptake at 0.5 h ([2]; small intestine, 30 min after i.v. administration, read-out: Radioactivity in small intestine): 3.6 ± 0.6 %ID/g
tissue uptake at 2 h ([2]; small intestine, 2 h after i.v. administration, read-out: Radioactivity in small intestine): 2.3 ± 1 %ID/g
tissue uptake at 4 h ([2]; small intestine, 4 h after i.v. administration, read-out: Radioactivity in small intestine): 1.6 ± 0.4 %ID/g
tissue uptake at 0.5 h ([2]; spleen, 30 min after i.v. administration, read-out: Radioactivity in spleen): 0.7 ± 0.2 %ID/g
tissue uptake at 2 h ([2]; spleen, 2 h after i.v. administration, read-out: Radioactivity in spleen): 0.3 ± 0.1 %ID/g
tissue uptake at 4 h ([2]; spleen, 4 h after i.v. administration, read-out: Radioactivity in spleen): 0.2 %ID/g
tissue uptake dose at 0.5 h ([2]; stomach, 30 min after i.v. administration): 0.6 ± 0.5 %ID
tissue uptake dose at 2 h ([2]; stomach, 2 h after i.v. administration): 0.2 %ID
tissue uptake dose at 4 h ([2]; stomach, 4 h after i.v. administration): 0.3 ± 0.3 %ID
tissue uptake at 0.5 h ([2]; whole blood, 30 min after i.v. administration, read-out: Radioactivity in blood): 1.1 ± 0.1 %ID/g
tissue uptake at 2 h ([2]; whole blood, 2 h after i.v. administration, read-out: Radioactivity in blood): 0.3 ± 0.1 %ID/g
tissue uptake at 4 h ([2]; whole blood, 4 h after i.v. administration, read-out: Radioactivity in blood): 0.2 ± 0.1 %ID/g
SMILES: N=C(N)NCCC[C@@H]1NC(=O)[C@H]2CSCc3cc(cc(c3)CSC[C@H](C(N)=O)NC(=O)[C@H](CC(=O)O)NC(=O)CNC1=O)CSC[C@H](NC(=O)CNC(=O)[C@H](CO)NC(=O)c1ccc(NC(=O)CNC(=O)[C@H](CO)NC(=O)[C@@H]3CCCN3C(=O)[C@@H]3CCCN3C(=O)[C@@H]3CCCN3C(=O)CCc3cn(CC[C@H](NC(=O)CCNC(=O)c4cccc(I)c4)C(=O)N4CCC[C@H]4C(=O)N4CCC[C@H]4C(=O)N4CCC[C@H]4C(=O)N[C@@H](CO)C(=O)NCC(=O)Nc4ccc(C(=O)N[C@@H](CO)C(=O)NCC(=O)N[C@H]5CSCc6cc7cc(c6)CSC[C@@H](NC(=O)[C@H](CCC(N)=O)NC(=O)[C@@H]6CCCN6C(=O)[C@H](Cc6c[nH]cn6)NC5=O)C(=O)N[C@@H](CCCNC(=N)N)C(=O)NCC(=O)N[C@@H](CC(=O)O)C(=O)N[C@@H](C(N)=O)CSC7)cc4)nn3)cc1)C(=O)N[C@@H](Cc1c[nH]cn1)C(=O)N1CCC[C@H]1C(=O)N[C@@H](CCC(N)=O)C(=O)N2 [[^125I]bcRGDdimer]
Radioactivity in brain [1, 4]: 0.0 ± 0.0 % injected dose per gram of tissue
Radioactivity in brain [1, 5]: 0.0 ± 0.0 % injected dose per gram of tissue
